# Measured values from publication PMC8957246, “Synthesis and diverse biological activity profile of triethylammonium isatin-3-hydrazones” (ADMET & DMPK, 2022).
# Read-outs that look alike come from different tables or passages of the source.
# Assays:
# [1] = tested on: platelets (ADP-induced aggregation); experiment: Platelet aggregation (Born method), ADP-induced; format: cell-based; conditions: Homo sapiens, ADP 20 μg/mL, final concentration 2×10^–3 mol/L, median (25-75 percentiles), read-out: Platelets aggregation, % of control, ADP
# Procedure: The in vitro experiments were performed using the blood of healthy male donors aged 18-24 years (total 54 donors). The study was approved by the Ethics Committee of Federal State Budgetary Educational Institution of Higher Education at the Bashkir State Medical University of the Ministry of Health of Russian Federation (No.2 dated 17.10.2012). Informed consent was obtained from all participants before blood sampling. The blood was collected from the cubital vein using the system of vacuum blood collection BD Vacutainer® (Becton, Dickinson and Company, USA). A 3.8 % sodium citrate solution in a 9:1 ratio was used as a venous blood stabiliser. The study of the effect on platelet aggregation was performed using the Born method using the aggregometer «AT-02» (SPC Medtech, Russia). The assessment of antiplatelet activity of the studied compounds and reference preparations was started with the final concentration of 2×10^–3 mol/L. Adenosine diphosphate (ADP; 20 μg/mL) and collagen (5 mg/mL) manufactured by Tehnologia-Standart Company, Russia, were used as inducers of aggregation. The study on the anticoagulant activity was performed by standard recognised clotting tests using the optical two-channel automatic analyser of blood coagulation Solar CGL 2110 (CJSC SOLAR, Belarus). The following parameters were studied: activated partial thromboplastin time (APTT), prothrombin time (PT) and fibrinogen concentrations according to the Clauss method. The determination of anticoagulant activity of the studied compounds and reference preparation was performed in a concentration of 5×10^–4 g/mL using the reagents manufactured by Tehnologia-Standart Company (Barnaul, Russia). The results of the study were processed using the statistical package Statistica 10.0 (StatSoft Inc, USA). The Shapiro–Wilk’s test was used to check the normality of actual data distribution. The form of distribution of the data obtained differed from the normal one; therefore, non-parametric methods were used for further analysis. The data were presented as medians and 25 and 75 percentiles. Analysis of variance was conducted using Kruskal–Wallis test. A p value of 0.05 was considered statistically significant.
# [2] = tested on: Candida albicans ATCC 10231; experiment: Antimicrobial activity, serial dilution (MIC/MBC), Ca; format: cell-based; conditions: ATCC10231
# Procedure: (§1) The antimicrobial activity of the test compounds was determined by the serial dilution technique in Muller Hinton Broth 2 and in Sabouradu broth for fungi. The cultures used for testing included Gram-positive bacteria: Staphylococcus aureus ATCC 6538P FDA 209P, Bacillus cereus ATCC 10702 NCTC 8035, Enterococcus faecalis ATCC 29212; Gram-negative bacteria: Escherichia coli ATCC 25922, Pseudomonas aeruginosa ATCC 9027, and fungi: Trichophyton mentagrophytes var. gypseum 1773, and Candida albicans ATCC 10231; methicillin-resistant strains of S. aureus (MRSA) was obtained from hospital patients with chronic tonsillitis in the Republican Clinical Hospital (Kazan, Russia). The bacterial load was 3.0 × 10^5 cfu/ml. The fungi load was 2.0 × 10^3 cfu/ml. The results were recorded every 24 h for 5-7 days. Cultures were incubated at 37 °C. The experiment was repeated three times. […] The minimum inhibitory concentration (MIC) was defined as the minimum concentration of a compound that inhibits the growth of the corresponding test microorganism. The growth of bacteria, as well as the absence of the growth due to the bacteriostatic action of compounds, were recorded.
# (§2) Synthesized compounds were further evaluated for antimicrobial activity against test microorganisms: Staphylococcus aureus ATCC 209p (Sa), Bacillus cereus ATCC 8035 (Bc), Escherichia coli CDC F-50 (Ec), Enterococcus faecalis (Ef), Pseudomonas aeruginosa ATCC 9027, Aspergillus niger BKMF-1119, Trichophyton mentagrophytes var. gypseum 1773, and Candida albicans 855-653 including methicillin-resistant strains of S. aureus (MRSA 1 and MRSA 2). The minimum inhibitory (MIC) and minimum bactericidal (MBC) concentrations of ammonium salts were determined against these pathogens (Table 1). Due to the lack of activity of compounds 3a-g against Gram-negative bacterial strains and some fungi, the corresponding data are not shown.
# [3] = tested on: Pectobacterium carotovorum subsp. carotovorum MI; experiment: Bactericidal activity, agar diffusion, P. carotovorum; format: cell-based; conditions: Pectobacterium carotovorum, 2 mM/L
# Source text: Plant pathogenic bacterial strains Micrococcus luteus B-109, Pectobacterium atrosepticum 1043, Pectobacterium carotovorum subsp. carotovorum MI, Pseudomonas fluorescens EL-2.1, and Xanthomonas campestris B-610 and fungal strain Fusarium oxysporum IBPPM 543 were obtained from the specialized scientific culture collection of IBPPM RAS (WFCC no. 975, WDCM no. 1021) (CM IBPPM). Pathogenic fungus Phytophthora cactorum VKM F-985 provided by the All-Russian Collection of Microorganisms (VKM) and deposited at A.E. Favorsky Irkutsk Institute of Chemistry, SB RAS, was also used as test organism. Bacteria M. luteus, P. carotovorum subsp. carotovorum, P. atrosepticum, and Ps. fluorescens were grown in meat-peptone medium (BP), and X. campestris was grown in the medium with glucose, yeast extract, and calcium carbonate (GYCa). Solid media contained Bacto agar (18 g/L); pH was adjusted to 7.2-7.4. All bacterial cultures were grown at 28°C. The mycelial cultures of F. oxysporum and P. cactorum were grown on a glucose-peptone-yeast (GPY) nutrient medium at 27 °C. For inoculum preparation, both fungal strains were initially grown on the agar GPY in Petri dishes and then transferred into the seed medium by punching out 5 mm of the agar plate culture with a self-designed cutter.
# Antibacterial and antifungal activities of the compounds were explored using the agar diffusion method and the technique of a phytopathogen radial growth inhibition. Method of diffusion in agar (measuring the diameter of growth inhibition zones) was used for determining the bactericidal activity. The 6-mm wells were made in ager medium (GYCa for Xanthomonas campestris or BP for other bacteria). Bacterial suspensions were distributed over the agar surface, and the tested compound's solution (150 μl) was added to each well. The width of growth inhibition zones around the wells was determined after incubation for 36-40 h.
# The solutions of tested compounds were prepared with a concentration of 2 mmol/l (stock solution). For comparison, test compounds were also commonly applied disinfecting agents and antibiotics.
# [4] = tested on: methicillin-resistant strains of S. aureus (MRSA-2); experiment: Antimicrobial activity, serial dilution (MIC/MBC), MRSA-2; format: cell-based; conditions: Staphylococcus aureus
# Procedure: as §1, §2
# [5] = tested on: methicillin-resistant strains of S. aureus (MRSA-1); experiment: Antimicrobial activity, serial dilution (MIC/MBC), MRSA-1; format: cell-based; conditions: Staphylococcus aureus
# Procedure: as §1, §2
# [6] = tested on: MRSA-1 and MRSA-2 compared to erythrocytes and hepatocytes; experiment: Selectivity index (HC50 or IC50 / MIC); set-up: species or system Staphylococcus aureus; conditions: resistant strains MRSA-1 and MRSA-2 compared to erythrocytes and hepatocytes
# Procedure: The selectivity of compounds for microbial cells is an important criterion for assessing the cytotoxic effect. This indicator is characterized by the value of the selectivity index (SI), which for the leading compounds 3b, 3c, and 3d was calculated as the ratio between the HC50 value for erythrocytes (IC50 for eukaryotic cells) and the MIC value for bacterial cells (Fig. 4). […] Its selectivity index was 3–8 times higher than that of compounds 3b and 3c.
# [7] = 150 μl per well, 36-40 h, read-out: width of the inhibition zone
# [8] = read-out: Inhibition zone width (mm), not less
MIC [2] [µM],MIC [4] [µM],MIC [5] [µM],Compound,inhibition at 2000 µM [1] [%],MBC [2] [µM],"zone of inhibition at 2000 µM [3, 7] [mm]","zone of inhibition at 2000 µM [3, 8] [mm]",MBC [4] [µM],MBC [5] [µM],"selectivity index, times higher than that of compounds 3b and 3c [6]"
> 500,,,"CC[N+](CC)(CC)CC(=O)N/N=C1\C(=O)N(Cc2cc(C(C)(C)C)c(O)c(C(C)(C)C)c2)c2ccc([N+](=O)[O-])cc21 [Compound 3f, 2-(2-(1-(3,5-Di-tert-butyl-4-hydroxybenzyl)-5-nitro-2-oxoindolin-3-ylidene)hydrazinyl)-N,N,N-triethyl-2-oxoethanammonium bromide]",4.6,> 500,5,,,,
> 500,,,"CC[N+](CC)(CC)CC(=O)N/N=C1\C(=O)N(Cc2cc(C(C)(C)C)c(O)c(C(C)(C)C)c2)c2c(Br)cc(Cl)cc21 [Compound 3g, 2-(2-(1-(3,5-Di-tert-butyl-4-hydroxybenzyl)-5-chloro-7-bromo-2-oxoindolin-3-ylidene)hydrazinyl)-N,N,N-triethyl-2-oxoethanammonium bromide]",10.2,> 500,9,≥ 9,,,

# The remaining lines, values behind:
Compound,MIC [2] [µM],MIC [4] [µM],MIC [5] [µM],inhibition at 2000 µM [1] [%],MBC [2] [µM],"zone of inhibition at 2000 µM [3, 7] [mm]","zone of inhibition at 2000 µM [3, 8] [mm]",MBC [4] [µM],MBC [5] [µM],"selectivity index, times higher than that of compounds 3b and 3c [6]"
"CC[N+](CC)(CC)CC(=O)N/N=C1\C(=O)N(Cc2cc(C(C)(C)C)c(O)c(C(C)(C)C)c2)c2ccccc21 [Compound 3a, 2-(2-(1-(3,5-Di-tert-butyl-4-hydroxybenzyl)-2-oxoindolin-3-ylidene)hydrazinyl)-N,N,N-triethyl-2-oxoethanammonium bromide]",> 500,,,10.5,> 500,10,≥ 10,,,
"CCc1cccc2c1N(Cc1cc(C(C)(C)C)c(O)c(C(C)(C)C)c1)C(=O)/C2=N\NC(=O)C[N+](CC)(CC)CC [Compound 3c, 2-(2-(1-(3,5-Di-tert-butyl-4-hydroxybenzyl)-7-ethyl-2-oxoindolin-3-ylidene)hydrazinyl)-N,N,N-triethyl-2-oxoethanammonium bromide]",> 500,24.8 ± 2.2,49.7 ± 3.9,13.7,> 500,9,≥ 9,99.3,99.3,
"CC[N+](CC)(CC)CC(=O)N/N=C1\C(=O)N(Cc2cc(C(C)(C)C)c(O)c(C(C)(C)C)c2)c2c1ccc(C)c2C [Compound 3d, 2-(2-(1-(3,5-Di-tert-butyl-4-hydroxybenzyl)-6,7-dimethyl-2-oxoindolin-3-ylidene)hydrazinyl)-N,N,N-triethyl-2-oxoethanammonium bromide]",198 ± 15.5,6.2 ± 0.5,6.2 ± 0.5,9,> 500,8,≥ 8,49.6,12.4,3–8 times
"CC[N+](CC)(CC)CC(=O)N/N=C1\C(=O)N(Cc2cc(C(C)(C)C)c(O)c(C(C)(C)C)c2)c2cccc(Br)c21 [Compound 3e, 2-(2-(1-(3,5-Di-tert-butyl-4-hydroxybenzyl)-4-bromo-2-oxoindolin-3-ylidene)hydrazinyl)-N,N,N-triethyl-2-oxoethanammonium bromide]",> 500,,,0.5,> 500,10,≥ 10,,,
